{
  "source": "patent US8314088B2",
  "about": "“Pyrazinooxazepine derivatives” (Takeda Pharmaceutical Company Limited, priority 2009, dated 2012)",
  "key": {"[1]": {"biological_target": "serotonin 5-HT2C receptor (Homo sapiens, UniProt P28335, I156V/I160V/N158S)", "sequence (P28335 33-458 I156V/N158S/I160V limits assumed)": "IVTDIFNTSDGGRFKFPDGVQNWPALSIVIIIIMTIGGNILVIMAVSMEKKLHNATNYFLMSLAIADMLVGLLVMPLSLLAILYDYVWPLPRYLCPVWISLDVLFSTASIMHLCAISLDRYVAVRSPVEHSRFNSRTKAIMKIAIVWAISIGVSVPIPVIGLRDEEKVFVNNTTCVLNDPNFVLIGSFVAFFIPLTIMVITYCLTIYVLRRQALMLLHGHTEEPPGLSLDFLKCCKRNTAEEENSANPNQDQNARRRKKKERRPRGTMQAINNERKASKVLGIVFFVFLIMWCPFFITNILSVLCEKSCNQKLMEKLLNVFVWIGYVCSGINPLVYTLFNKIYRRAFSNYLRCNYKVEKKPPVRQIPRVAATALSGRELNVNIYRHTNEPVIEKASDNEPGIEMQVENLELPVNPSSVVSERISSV", "format": "cell-based"}, "[2]": {"tested_on": "SD female rats", "experiment": "stress urinary incontinence: leak point pressure before and after administration (Experimental Example 5a)", "format": "in vivo, rat", "settings": "i.v., spinal cord-transected SD female rats", "procedure": "The effect of the compound of the present invention for stress urinary incontinence was measured by comparing the leak point pressure before and after the administration of the compound as shown below. SD female rats (body weight 200-270 g) were anesthetized with urethane (Wako Pure Chemical Industries, Ltd.), and the spinal cord was cut at T8-9 level to eliminate the micturition reflex. During the operation, isoflurane anesthesia was added as necessary. The rats were fixed at a dorsal position, and two catheters (PE-100; Clay Adams) were indwelled in the bladder. One of the catheters was filled with saline stained with Evans Blue dye (Merck), and connected to a 50 ml syringe (TERUMO CORPORATION) fixed on an infusion pump (KD Scientific) via a three-way cock. The other catheter was connected to a pressure transducer (DX-100; NIHON KOHDEN CORPORATION), and signals of the transducer were transmitted to computer via an amplifier (blood pressure amplification unit AP-641G; NIHON KOHDEN CORPORATION) and a data analyzer (BIOPAC; MP100), and recorded on a hard disk. The data was analyzed on the computer using a software (BIOPAC; AcqKnowledge). A DMA/PEG400 (1:1) solution was intravenously administered to the rats at 0.5 mL/kg. From 10 min later, saline was injected into the bladder using the infusion pump at a rate of 360 ml/hr, infusion was stopped on the moment fluid leakage from the urethral meatus was observed, and the solution in the bladder was discharged by opening the three-way cock. The maximum intravesical pressure during infusion was taken as a leak point pressure, which was measured repeatedly until the value was stabilized, and the average value of the last three measures was taken as the data. […] Williams test was used for statistical calculation."}, "[3]": {"tested_on": "male F344 rats (DIO-F344 rat)", "experiment": "obesity: body weight and food consumption in high-fat diet-loaded rats, osmotic pump (Experimental Example 6b)", "format": "in vivo", "settings": "subcutaneous osmotic pump; for body weight loss (%): 14 days", "procedure": "The effect of the compound of the present invention for obesity was measured using high-fat diet-loaded rats based on the effects on body weight and food consumption. 38 to 60-week-old male F344 rats (DIO-F344 rat) raised on a […] fat high-fat diet (D12451, Research Diets) from 7 weeks of age were used. They were grouped based on the body weight one day before operation. The compound of Example 8 was dissolved in saline, filled in an osmotic pump (Alzet osmotic pump 2mL2 type), and subcutaneously implanted under isoflurane anesthesia. The body weight was measured on completion of the operation, and measured again at 14 days postoperation. In addition, the amount of remaining food was measured, and food consumption for 14 days was measured. For statistical calculation, Williams test was used."}, "[4]": {"tested_on": "female spinal cord-transected rats with bilaterally transected hypogastric nerve and pudendal nerve", "experiment": "organ prolapse: urethral closure response induced by increased intravesical pressure (Experimental Example 7a)", "format": "in vivo, rat", "set-up": "unit not given here", "settings": "1 mg/kg, i.v.; evaluated 10 min after administration", "procedure": "The effect of the compound of the present invention for organ prolapse was measured by examining the enhancement of urethral closure response by pelvic floor muscles (iliococcygeal muscle, pubococcygeal muscle etc.) induced by an increased intravesical pressure, by compound administration. The enhancing action of the compound on urethral closure response induced by an increased intravesical pressure was measured using female spinal cord-transected rats with bilaterally transected hypogastric nerve and pudendal nerve. SD female rats (body weight 246-298 g) were anesthetized with urethane, and the spinal cord was cut at T8-9 level to eliminate the micturition reflex. During the operation, isoflurane anesthesia was added as necessary. After abdominal section, bladder neck was ligated with a suture thread, and then the hypogastric nerve and pudendal nerve were bilaterally transected. […] The changes in the topical pressure within the urethra (hereinafter conveniently indicated as urethral pressure) as measured by the microtip transducer was transmitted to a computer via an amplifier and a data intake device, and recorded on a hard disc. […] The reaction of the urethra induced by an increased intravesical pressure was measured repeatedly until the value is stabilized, and the average of the last 2 measures was taken as the value before drug administration. […]"}, "[5]": {"tested_on": "Male F344 rats", "experiment": "obesity: food consumption after single gavage dose (Experimental Example 6a)", "format": "in vivo, rat", "settings": "0.5 mg/mL in 0.5% methylcellulose, 2 mL/kg by gavage; 24 hr after administration; obese F344 rats on high-fat diet", "procedure": "Experimental Example 6a The effect of the compound of the present invention for obesity was measured using the food consumption calculated as follows as an index. Male F344 rats (CLEA Japan, Inc.) were purchased at 5 weeks of age, and raised by groups on a solid high-fat diet with fat content 45 kcal % (D12451, Research Diets). When sufficient obesity was observed (40 to 60-week-old), they were raised singly, and given a powder high-fat diet with lipid content 45 kcal % […], Research Diets) in a feeder. The rats were grouped using body weight and food consumption (18:00-8:00) one day before administration as indices. […] A 0.5% methylcellulose solution was administered to the control group. After administration, a previously-weighed feeder was placed in the breeding cage. The feeder was weighed 24 hr after the administration and the food consumption was calculated."}},
  "data": [
    {"compound": "CC(C)N(C)c1cnc2c(n1)OCCNC2.Cl", "note": "[Example 8, N-methyl-N-(1-methylethyl)-6,7,8,9-tetrahydropyrazino[2,3-f][1,4]oxazepin-3-amine hydrochloride]", "values": [
      {"measurement": "ratio (%) relative to maximum response by 5-HT (1 μM)", "setting": "[1]", "result": 95, "unit": "%"},
      {"measurement": "Change in leak point pressure (cmH2O)", "setting": "[2]; 0.1 mg/kg", "result": "5.4 ± 1.6", "unit": "cmH2O"},
      {"measurement": "Change in leak point pressure (cmH2O)", "setting": "[2]; 0.3 mg/kg", "result": "10.8 ± 3.3", "unit": "cmH2O"},
      {"measurement": "Change in leak point pressure (cmH2O)", "setting": "[2]; 1 mg/kg", "result": "17.3 ± 3.4", "unit": "cmH2O"},
      {"measurement": "Change in leak point pressure (cmH2O)", "setting": "[2]; 3 mg/kg", "result": "23.6 ± 3.3", "unit": "cmH2O"},
      {"measurement": "food consumption/14 days", "setting": "[3]; 3 mg/kg/day", "result": "150 ± 7", "unit": "g"},
      {"measurement": "body weight loss (%)", "setting": "[3]; 3 mg/kg/day", "result": "4.8 ± 0.5", "unit": "%"},
      {"measurement": "food consumption/14 days", "setting": "[3]; 10 mg/kg/day", "result": "140 ± 6", "unit": "g"},
      {"measurement": "body weight loss (%)", "setting": "[3]; 10 mg/kg/day", "result": "4.9 ± 0.3", "unit": "%"},
      {"measurement": "food consumption/14 days", "setting": "[3]; 30 mg/kg/day", "result": "110 ± 2", "unit": "g"},
      {"measurement": "body weight loss (%)", "setting": "[3]; 30 mg/kg/day", "result": "7.5 ± 0.3", "unit": "%"},
      {"measurement": "urethral closure respons (ratio relative to value before administration)", "setting": "[4]", "result": "192 ± 13"}
    ]},
    {"compound": "C[C@@H]1COCCN1c1cnc2c(n1)O[C@@H](C)CNC2.Cl", "note": "[Example 7, (6S)-6-methyl-3-[(3R)-3-methylmorpholin-4-yl]-6,7,8,9-tetrahydropyrazino[2,3-f][1,4]oxazepine hydrochloride]", "values": [
      {"measurement": "ratio (%) relative to maximum response by 5-HT (1 μM)", "setting": "[1]", "result": 108, "unit": "%"}
    ]},
    {"compound": "CC(C)Oc1cnc2c(n1)OCCNC2.Cl", "note": "[Example 2, 3-(1-methylethoxy)-6,7,8,9-tetrahydropyrazino[2,3-f][1,4]oxazepine hydrochloride]", "values": [
      {"measurement": "ratio (%) relative to maximum response by 5-HT (1 μM)", "setting": "[1]", "result": 93, "unit": "%"}
    ]},
    {"compound": "CC[C@@H]1COCCN1c1cnc2c(n1)OCCNC2.Cl", "note": "[Example 9, 3-[(3R)-3-ethylmorpholin-4-yl]-6,7,8,9-tetrahydropyrazino[2,3-f][1,4]oxazepine hydrochloride]", "values": [
      {"measurement": "ratio (%) relative to maximum response by 5-HT (1 μM)", "setting": "[1]", "result": 103, "unit": "%"}
    ]},
    {"compound": "C[C@@H]1COCCN1c1cnc2c(n1)OCCNC2.Cl", "note": "[Example 5, 3-[(3R)-3-methylmorpholin-4-yl]-6,7,8,9-tetrahydropyrazino[2,3-f][1,4]oxazepine hydrochloride]", "values": [
      {"measurement": "ratio (%) relative to maximum response by 5-HT (1 μM)", "setting": "[1]", "result": 95, "unit": "%"},
      {"measurement": "Change in leak point pressure (cmH2O)", "setting": "[2]; 0.03 mg/kg", "result": "5.2 ± 1.7", "unit": "cmH2O"},
      {"measurement": "Change in leak point pressure (cmH2O)", "setting": "[2]; 0.1 mg/kg", "result": "9.1 ± 1.3", "unit": "cmH2O"},
      {"measurement": "Change in leak point pressure (cmH2O)", "setting": "[2]; 0.3 mg/kg", "result": "13.6 ± 2.4", "unit": "cmH2O"},
      {"measurement": "Change in leak point pressure (cmH2O)", "setting": "[2]; 1 mg/kg", "result": "19.6 ± 1.9", "unit": "cmH2O"},
      {"measurement": "suppression of food consumption as compared to the control group", "setting": "[5]", "result": 21.8, "unit": "%"},
      {"measurement": "urethral closure respons (ratio relative to value before administration)", "setting": "[4]", "result": "227 ± 32"}
    ]},
    {"compound": "Cl.c1nc2c(nc1C1CC1)OCCNC2", "note": "[Example 10, 3-cyclopropyl-6,7,8,9-tetrahydropyrazino[2,3-f][1,4]oxazepine hydrochloride]", "values": [
      {"measurement": "ratio (%) relative to maximum response by 5-HT (1 μM)", "setting": "[1]", "result": 89, "unit": "%"}
    ]},
    {"compound": "C[C@H]1CNCc2ncc(N3CCOCC3)nc2O1", "note": "[Example 6, (6S)-6-methyl-3-(morpholin-4-yl)-6,7,8,9-tetrahydropyrazino[2,3-f][1,4]oxazepine]", "values": [
      {"measurement": "ratio (%) relative to maximum response by 5-HT (1 μM)", "setting": "[1]", "result": 102, "unit": "%"}
    ]}
  ]
}
